Test results reported in ChEMBL document CHEMBL3632587, “Discovery of a Specific Inhibitor of Pyomelanin Synthesis in Legionella pneumophila” (J Med Chem, 2015).
pKd, pKi: −log10 of the molar value. “And” between values parts separate entries of the source, which are not always exact repeats. Equal entries are not always repeated. The source made the active and inactive calls. No cut-off for these calls is given here.

How the values were obtained:
[1] = test system: Legionella pneumophila; experiment: Inhibition of Legionella pneumophila recombinant PAH assessed as residual activity by […] assay using 1 mM L-Phe as substrate and 200 uM BH4 as cofactor
[2] = Non-competitive inhibition of Legionella pneumophila recombinant PAH for enzyme-substrate complex by […] assay using BH4 as cofactor
[3] = test system: Legionella pneumophila; experiment: Inhibition of PAH in Legionella pneumophila 130b lysate assessed as residual activity at 10 uM by direct detect spectrometer
[4] = Non-competitive inhibition of Legionella pneumophila recombinant PAH for free enzyme by […] assay using BH4 as cofactor
[5] = Uncompetitive inhibition of Legionella pneumophila recombinant PAH for enzyme-substrate complex by […] assay using L-Phe as substrate
[6] = Uncompetitive inhibition of Legionella pneumophila recombinant PAH for free enzyme by […] assay using L-Phe as substrate
[7] = test system: Legionella pneumophila; experiment: Antibacterial activity against Legionella pneumophila 130b assessed as bacterial growth at 0.1 to 40 uM after 24 hrs by spectrometer; assay type: functional, organism-based
[8] = test system: Legionella pneumophila; experiment: Antibacterial activity against Legionella pneumophila 130b assessed as bacterial growth at <= 10 uM after 24 hrs by spectrometer; assay type: functional, organism-based
[9] = test system: Escherichia coli; experiment: Antibacterial activity against Escherichia coli XL-10 Gold assessed as slower growth rate at > 40 uM after 21 hrs; assay type: functional, organism-based
[10] = Mixed inhibition of Legionella pneumophila recombinant PAH for enzyme-substrate complex by […] assay method using L-Phe as substrate
[11] = Binding affinity to Legionella pneumophila recombinant PAH by DSF assay
[12] = Mixed inhibition of Legionella pneumophila recombinant PAH for free enzyme by […] assay using L-Phe as substrate
[13] = test system: Legionella pneumophila; experiment: Antibacterial activity against Legionella pneumophila 130b assessed as bacterial growth at 20 uM after 24 hrs by spectrometer; assay type: functional, organism-based
[14] = test system: Legionella pneumophila; experiment: Antibacterial activity against Legionella pneumophila 130b assessed as bacterial growth at 40 uM after 24 hrs by spectrometer; assay type: functional, organism-based
[15] = test system: Escherichia coli; experiment: Antibacterial activity against Escherichia coli XL-10 Gold at <= 100 uM after 21 hrs; assay type: functional, organism-based
[16] = target: T1, Phenylalanine-4-hydroxylase (Homo sapiens) (UniProt P00439); experiment: Inhibition of human PAH by […] assay using L-Phe as substrate and 75 uM BH4 as cofactor
T1 sequence (whole entry): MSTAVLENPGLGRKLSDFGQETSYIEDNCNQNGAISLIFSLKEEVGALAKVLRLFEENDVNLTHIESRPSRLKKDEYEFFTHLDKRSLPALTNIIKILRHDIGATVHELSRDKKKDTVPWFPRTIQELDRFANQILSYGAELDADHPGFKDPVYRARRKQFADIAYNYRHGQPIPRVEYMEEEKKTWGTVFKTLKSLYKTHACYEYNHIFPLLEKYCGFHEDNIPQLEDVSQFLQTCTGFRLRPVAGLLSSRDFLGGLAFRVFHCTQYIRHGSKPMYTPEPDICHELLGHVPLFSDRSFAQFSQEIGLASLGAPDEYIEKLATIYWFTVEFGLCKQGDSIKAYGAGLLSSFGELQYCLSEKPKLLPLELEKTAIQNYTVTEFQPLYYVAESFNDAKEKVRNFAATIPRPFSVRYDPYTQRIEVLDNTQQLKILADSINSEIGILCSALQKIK

c1ccc(-c2cc(N3CCOCC3)c3ccccc3n2)nc1
Activity [1]: 4.9% and 2.6%

Oc1cc(C(F)(F)F)nn1-c1nc2ccccc2s1
Activity [1]: 1.4%

S=C(NNC(=S)Nc1ccccc1)Nc1ccccc1
Activity [1]: 1.9%

CN1CCN(c2cc(-c3ccccn3)nc3ccccc23)CC1
Activity [1]: 2.6%

O=C(O)c1cc([N+](=O)[O-])cc2c1-c1ccc([N+](=O)[O-])cc1/C2=N/O
pKi [2]: 6.00 | Activity [3]: 39% | pKi [4]: 6.00 | pKi [5]: 6.43 | pKi [6]: 4.70 | Activity [7]: Active | Activity [1]: 0.1%

c1ccc(-c2cc(N3CCCCC3)c3ccccc3n2)nc1
Activity [1]: 3.1%

O=C(C1=C(O)C(=O)N(c2nncs2)C1c1ccc(Cl)cc1)c1cccs1 (configuration not stated)
Activity [1]: 2.23%

c1ccc2c(c1)CSc1sccc1C2n1ccnc1 (configuration not stated)
pKi [2]: 5.77 | Activity [3]: 36% | Activity [8]: inactive | pKi [4]: 5.70 | Activity [9]: Active | pKi [10]: 5.39 | pKd [11]: 5.96 | pKi [12]: 5.66 | Activity [13]: Active | Activity [14]: Active | Activity [15]: inactive | inhibition [16]: Active | Activity [1]: 0.38%

O=C(C1=C(O)C(=O)N(Cc2ccco2)C1c1ccc(Oc2ccccc2)cc1)c1cccs1 (configuration not stated)
Activity [1]: 1.53%

Cc1nccn1C1c2ccccc2CSc2sccc21 (configuration not stated)
Activity [1]: 2.2%

c1ccc2c(c1)CSc1ccccc1C2n1ccnc1 (configuration not stated)
Activity [1]: 1.6%

CC1(C)CC(=O)C2=C(C1)NC1=C(C(=O)CC(C)(C)C1)C2c1cnc[nH]1
Activity [1]: 3.2%

O=c1cc(CO)oc(C(Nc2nccs2)c2ccc(F)cc2)c1O (configuration not stated)
Activity [1]: 0.1%

CC(C)(C)c1ccc(C2C(C(=O)c3cccs3)=C(O)C(=O)N2c2nncs2)cc1 (configuration not stated)
Activity [1]: 4.2%
